Reference: patent US20140179681A1, “METHODS AND COMPOSITIONS OF TARGETED DRUG DEVELOPMENT” (priority 2010, published 2014)
Counter-ions that a name gives are not always drawn. Like-named read-outs stand apart in the source and are kept apart here. Each block holds one compound with its values, some of them ahead of it.

Experiments:
MDBK line = assay: MTT Cell Proliferation Assay, MDBK cells; format: cell-based, bovine
How it was run: (§1)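 Viability was measured by mitochondrial MTT reduction after cells were exposed to compound for 3 days in reduced-serum medium. Inhibition was calculated per plate against 0.5% DMSO controls.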

[1] = tested on: epithelial carcinoma A431 cell line; assay: MTT Cell Proliferation Assay, A431 cells; format: cell-based; details: for MTT Assay IC50(A431/MDBK): ratio in parentheses: ratio MDBK IC50 / A431 IC50 (selectivity)
How it was run: as §1

EGFR = biological target: T1, EGFR (Homo sapiens, UniProt P00533); assay: EGFR in-cell Western (ICW) screening protocol (EGFR inhibition assay); format: cell-based; parameters: ICW 1 / ICW 2 / ICW Avg: unit not given here; details: for ICW assay: Table 10; for ICW assay / ICW Screen: % Inhibition of EGF dependent EGFR phosphorylation in A431 cells, compound 125 μM in assay; for ICW Avg / ICW 1 / ICW 2: ICW assay; for ICW Avg: average of runs 1 and 2; for ICW 1: run 1; for ICW 2: run 2; for ICW Screen: Table 11
T1 construct: host or cells: A431
How it was run: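 Serum-starved A431 cells (2 h) were pretreated with compound for 4 h at 37° C, then stimulated with EGF (10 ng/ml final, or 6.6 or 12.5 ng/ml in some runs) for 10 min. After formaldehyde fixation, phospho-EGFR (Tyr1173, or Tyr1045 in some runs) and total EGFR were detected by in-cell Western immunostaining.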

[2] = Bos taurus, MDBK, 72 h, Table 10, second of x/y(ratio): MDBK, three day treatment, unit not printed (doses in μM), read-out: MTT assay (second value)
[3] = Homo sapiens, A-431, 72 h, Table 10, first of x/y(ratio): A431, three day treatment, unit not printed (doses in μM), read-out: MTT assay (first value)
[4] = Bos taurus, MDBK, MDBK cells, second value of cell, read-out: MTT Assay IC50(A431/MDBK): MDBK
[5] = Homo sapiens, A-431, A431 cells, first value of cell, read-out: MTT Assay IC50(A431/MDBK): A431
[6] = Bos taurus, MDBK, Table 11, second of x/y(ratio): MDBK, unit not printed (doses in μM), read-out: MTT Screen (second value)
[7] = Bos taurus, MDBK, second value of 'a/b (c)', taken as MDBK cells, read-out: MTT Screen, second value of cell
[8] = second value of 'a/b (c)', taken as MDBK cells, read-out: MTT Screen, second value of cell
[9] = Homo sapiens, A-431, first value of 'a/b (c)', taken as A431 cells, read-out: MTT Screen, first value of cell
[10] = first value of 'a/b (c)', taken as A431 cells, read-out: MTT Screen, first value of cell

T1 sequence (P00533 25-1210): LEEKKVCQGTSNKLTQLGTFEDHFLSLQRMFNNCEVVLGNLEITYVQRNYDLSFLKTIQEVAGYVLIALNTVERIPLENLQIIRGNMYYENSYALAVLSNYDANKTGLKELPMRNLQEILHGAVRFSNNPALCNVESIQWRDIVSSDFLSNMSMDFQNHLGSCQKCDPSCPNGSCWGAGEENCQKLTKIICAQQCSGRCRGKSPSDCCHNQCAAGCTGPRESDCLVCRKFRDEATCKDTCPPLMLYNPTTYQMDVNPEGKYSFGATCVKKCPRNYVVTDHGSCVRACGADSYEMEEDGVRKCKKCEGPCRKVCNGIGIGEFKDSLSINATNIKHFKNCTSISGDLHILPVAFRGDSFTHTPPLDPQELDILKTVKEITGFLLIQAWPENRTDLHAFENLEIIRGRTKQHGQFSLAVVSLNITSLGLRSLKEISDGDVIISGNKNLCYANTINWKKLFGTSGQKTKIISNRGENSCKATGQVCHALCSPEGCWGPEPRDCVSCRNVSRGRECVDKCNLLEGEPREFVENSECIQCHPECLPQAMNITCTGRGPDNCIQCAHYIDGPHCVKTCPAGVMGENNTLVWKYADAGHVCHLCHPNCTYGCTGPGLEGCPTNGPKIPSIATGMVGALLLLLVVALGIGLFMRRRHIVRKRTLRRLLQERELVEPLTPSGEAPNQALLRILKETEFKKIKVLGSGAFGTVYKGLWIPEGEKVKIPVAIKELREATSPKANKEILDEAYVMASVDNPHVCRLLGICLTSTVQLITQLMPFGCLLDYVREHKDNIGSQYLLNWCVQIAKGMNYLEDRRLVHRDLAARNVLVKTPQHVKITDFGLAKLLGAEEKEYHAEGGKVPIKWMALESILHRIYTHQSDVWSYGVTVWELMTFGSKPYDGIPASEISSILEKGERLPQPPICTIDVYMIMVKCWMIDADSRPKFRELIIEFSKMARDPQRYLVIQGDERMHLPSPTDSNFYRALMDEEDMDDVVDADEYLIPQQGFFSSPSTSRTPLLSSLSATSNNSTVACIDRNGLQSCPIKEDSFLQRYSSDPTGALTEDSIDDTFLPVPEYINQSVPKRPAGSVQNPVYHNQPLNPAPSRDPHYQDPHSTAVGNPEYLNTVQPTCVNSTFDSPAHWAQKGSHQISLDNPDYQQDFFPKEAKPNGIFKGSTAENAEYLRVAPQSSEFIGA

SMILES: CC(C)c1ccc2oc(=O)cc(CN3CCN(Cc4ccc5c(c4)OCO5)CC3)c2c1 [AD4-10192]
IC50 (MDBK line; [6]): 43.3 µM
IC50 ([1]; Homo sapiens, A-431, 72 h, Table 11, first of x/y(ratio): A431, unit not printed (doses in μM), read-out: MTT Screen (first value)): 16.5 µM
ICW Screen (EGFR): 16.772

SMILES: Cc1ccccc1OCC(=O)NC(=S)Nc1ccc(S(=O)(=O)NC2CCCCC2)cc1 [AD4-12073]
IC50 (MDBK line; [7]): 32.3 µM
IC50 (MDBK line; [8]): 17 µM
IC50 [1, 9]: 19.5 µM
IC50 [1, 10]: 11.6 µM
ICW Screen (ICW Inhibition) (EGFR): 29.313

SMILES: Cc1c(O)ccc2c(CN3CCN(Cc4ccc5c(c4)OCO5)CC3)cc(=O)oc12 [AD4-10637]
IC50 (MDBK line; [6]): 41.3 µM
IC50 ([1]; Homo sapiens, A-431, Table 11, first of x/y(ratio): A431, unit not printed (doses in μM), read-out: MTT Screen (first value)): 20.8 µM
ICW Screen (EGFR): 30.057

SMILES: CCCc1c(C)nc(Nc2nc(C)c3cccc(OC)c3n2)[nH]c1=O [11773 + TFA]
IC50 (MDBK line; [4]): 21 µM
IC50 [1, 5]: 39.4 µM
MTT Assay IC50(A431/MDBK): ratio in parentheses [1]: 0.53
ICW Avg (EGFR): 33.52
ICW 1 (EGFR): 43.74
ICW 2 (EGFR): 23.30

SMILES: CCCc1cc(=O)[nH]c(Nc2nc(C)c3cc(C)c(C)cc3n2)n1 [12673 + TFA]
IC50 (MDBK line; MDBK cells, second value of cell, read-out: MTT Assay IC50(A431/MDBK): MDBK): 22.5 µM
IC50 ([1]; A431 cells, first value of cell, read-out: MTT Assay IC50(A431/MDBK): A431): 33.1 µM
MTT Assay IC50(A431/MDBK): ratio in parentheses [1]: 0.68
ICW Avg (EGFR): 52.80
ICW 1 (EGFR): 44.70
ICW 2 (EGFR): 60.90

SMILES: Cc1ccc(NS(=O)(=O)c2ccc(NC(=S)NC(=O)C3CCCCC3)cc2)cc1C [AD4-11417]
IC50 (MDBK line; [8]): 49.3 µM
IC50 [1, 10]: 25.5 µM
ICW Screen (ICW Inhibition) (EGFR): 40.711

SMILES: Cc1ccccc1NS(=O)(=O)c1ccc(NC(=S)Nc2cccc(C(F)(F)F)c2)cc1 [AD4-12487]
IC50 (MDBK line; [2]): 5.5 µM
IC50 [1, 3]: 6.45 µM
ICW assay (EGFR): 84.5602

SMILES: Cc1ccc(NS(=O)(=O)c2ccc(NC(=S)NC(=O)C(C)C)cc2)cc1C [AD4-12003]
IC50 (MDBK line; [7]): 12.8 µM
IC50 [1, 9]: 11.5 µM
ICW Screen (ICW Inhibition) (EGFR): 32.007

SMILES: O=C(NC(=S)Nc1ccc(S(=O)(=O)N2CCCCCC2)cc1)C1CCC1 [AD4-12104]
IC50 (MDBK line; [7]): 37.6 µM
IC50 [1, 9]: 39 µM
ICW Screen (ICW Inhibition) (EGFR): 41.204

SMILES: COc1ccc(CC(=O)NC(=S)Nc2ccc(S(=O)(=O)NCCc3ccccc3)cc2)cc1 [AD4-11415]
IC50 (MDBK line; [7]): 10.5 µM
IC50 [1, 9]: 15.7 µM
ICW Screen (ICW Inhibition) (EGFR): 35.841

SMILES: COc1ccccc1NS(=O)(=O)c1ccc(NC(=S)Nc2ccc(OC)c(OC)c2)cc1 [AD4-12537]
IC50 (MDBK line; [2]): 38.6 µM
IC50 [1, 3]: 35.4 µM
ICW assay (EGFR): 30.7051

More lines, main results first:

IC50 [1, 3]: 4.07 µM
ICW assay (EGFR): 30.8167
SMILES: CCCCc1ccc(NC(=S)Nc2ccc(S(=O)(=O)Nc3ccccc3)cc2)cc1 [AD4-12823]
IC50 (MDBK line; [2]): 4.06 µM

IC50 [1, 5]: 17.9 µM
MTT Assay IC50(A431/MDBK): ratio in parentheses [1]: 0.67
ICW Avg (EGFR): 32.65
ICW 1 (EGFR): 18.02
ICW 2 (EGFR): 47.28
SMILES: C=CCc1c(C)nc(Nc2nc(C)c3cccc(OC)c3n2)[nH]c1=O [compound 12746]
IC50 (MDBK line; [4]): 11.9 µM

IC50 [1, 3]: 31.8 µM
ICW assay (EGFR): 42.2628
SMILES: CC1CCc2cc(F)ccc2N1S(=O)(=O)c1ccc(NC(=S)Nc2ccc(F)cc2)cc1 (centres unmarked) [AD4-12850]
IC50 (MDBK line; [2]): 35.8 µM

IC50 [1, 5]: 36 µM
MTT Assay IC50(A431/MDBK): ratio in parentheses [1]: 0.68
ICW Avg (EGFR): 27.23
ICW 1 (EGFR): 28.83
ICW 2 (EGFR): 25.63
SMILES: COC(=O)Cc1cc(=O)nc(Nc2nc(C)c3ccccc3n2)[nH]1 [compound 11609]
IC50 (MDBK line; [4]): 24.3 µM

IC50 [1, 5]: 16.4 µM
MTT Assay IC50(A431/MDBK): ratio in parentheses [1]: 1.04
ICW Avg (EGFR): 27.27
ICW 1 (EGFR): 31.47
ICW 2 (EGFR): 23.08
SMILES: Cc1ccc2nc(Nc3nc4c(c(-c5ccccc5)n3)CCCC4)nc(C)c2c1 [compound 12227]
IC50 (MDBK line; [4]): 17.1 µM

IC50 [1, 5]: 10.8 µM
MTT Assay IC50(A431/MDBK): ratio in parentheses [1]: 2.16
ICW Avg (EGFR): 37.35
ICW 1 (EGFR): 48.80
ICW 2 (EGFR): 25.90
SMILES: Cc1ccnc(Nc2nc(-c3ccccc3)c3cc(Cl)ccc3n2)n1 [compound 11455]
IC50 (MDBK line; [4]): 23.4 µM
